For the assay, the target named is HEK293 cells with stable expression of the GRIN1 gene and tetracycline-inducible expression of the GRIN2B gene (NMDA receptor, NR2B) (Homo sapiens, UniProt Q13224). The experiment in a line: Fluo-8 Ca2+ flux assay: reversal of Ro 25-6981-mediated suppression of the Ca2+ response to co-agonist (glutamate/glycine). Also: test concentration or dose not given here. In kind it is cell-based. To be noted: reversal of the Ro 25-6981 suppression of the Ca2+ response to co-agonist (glutamate/glycine).
Sequence of HEK293 cells with stable expression of the GRIN1 gene and tetracycline-inducible expression of the GRIN2B gene (NMDA receptor, NR2B) (Q13224 27-1484, other chains not shown): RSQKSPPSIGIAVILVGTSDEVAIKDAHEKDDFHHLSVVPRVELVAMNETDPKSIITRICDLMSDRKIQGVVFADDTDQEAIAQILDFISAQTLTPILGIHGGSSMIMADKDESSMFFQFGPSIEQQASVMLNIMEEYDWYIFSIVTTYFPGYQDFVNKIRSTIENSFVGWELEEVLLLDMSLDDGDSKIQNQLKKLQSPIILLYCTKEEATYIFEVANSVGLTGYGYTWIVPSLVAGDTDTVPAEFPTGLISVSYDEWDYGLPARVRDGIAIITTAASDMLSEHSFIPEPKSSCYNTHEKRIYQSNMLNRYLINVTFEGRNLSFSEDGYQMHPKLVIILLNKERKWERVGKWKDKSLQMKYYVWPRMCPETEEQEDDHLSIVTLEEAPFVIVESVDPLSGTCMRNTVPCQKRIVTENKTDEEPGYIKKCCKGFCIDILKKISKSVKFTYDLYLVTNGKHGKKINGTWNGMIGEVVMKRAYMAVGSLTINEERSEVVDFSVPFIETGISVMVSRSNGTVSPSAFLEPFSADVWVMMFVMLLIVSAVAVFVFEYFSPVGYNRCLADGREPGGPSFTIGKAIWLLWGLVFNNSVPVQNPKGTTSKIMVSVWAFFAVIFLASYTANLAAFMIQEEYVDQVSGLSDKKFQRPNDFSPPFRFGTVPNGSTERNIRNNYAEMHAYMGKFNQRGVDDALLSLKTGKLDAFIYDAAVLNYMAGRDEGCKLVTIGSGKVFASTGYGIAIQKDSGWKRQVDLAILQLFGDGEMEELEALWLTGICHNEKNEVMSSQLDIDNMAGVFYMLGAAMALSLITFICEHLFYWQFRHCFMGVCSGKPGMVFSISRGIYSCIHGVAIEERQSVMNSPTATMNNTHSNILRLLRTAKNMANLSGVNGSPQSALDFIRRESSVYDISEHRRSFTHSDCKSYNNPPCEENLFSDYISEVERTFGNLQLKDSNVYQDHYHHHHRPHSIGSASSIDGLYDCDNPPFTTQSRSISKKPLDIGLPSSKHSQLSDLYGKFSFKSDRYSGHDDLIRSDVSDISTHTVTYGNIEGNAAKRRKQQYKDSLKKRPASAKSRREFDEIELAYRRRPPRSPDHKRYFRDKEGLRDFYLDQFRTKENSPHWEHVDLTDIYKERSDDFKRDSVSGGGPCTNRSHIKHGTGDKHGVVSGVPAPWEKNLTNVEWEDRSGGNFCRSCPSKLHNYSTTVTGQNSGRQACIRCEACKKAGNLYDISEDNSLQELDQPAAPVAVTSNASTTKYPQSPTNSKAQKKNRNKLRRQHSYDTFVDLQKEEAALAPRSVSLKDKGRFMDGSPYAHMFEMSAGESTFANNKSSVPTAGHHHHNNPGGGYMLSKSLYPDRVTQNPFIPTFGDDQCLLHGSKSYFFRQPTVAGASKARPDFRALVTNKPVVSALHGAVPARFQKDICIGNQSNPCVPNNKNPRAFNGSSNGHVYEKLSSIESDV

In the case of `O=C(Cn1ccc2[nH]cc(-c3ccc(F)c(Cl)c3)c2c1=O)N1CCC(F)C1` (stereo not drawn) [Example 209, 3-(3-chloro-4-fluorophenyl)-5-(2-(3-fluoropyrrolidin-1-yl)-2-oxoethyl)-1H-pyrrolo[3,2-c]pyridin-4(5H)-one], the “Response Recovered (%)” value worked out at 53%.
For the compound `O=C(Cn1ccc2ncc(-c3cnc(Cl)c(C(F)(F)F)c3)n2c1=O)N1CCC(F)C1` (stereo not drawn) [Example 449, 3-(6-chloro-5-(trifluoromethyl)pyridin-3-yl)-6-(2-(3-fluoropyrrolidin-1-yl)-2-oxoethyl)imidazo[1,2-c]pyrimidin-5(6H)-one], the “Response Recovered (%)” value was found to be 5.2%.
`CCn1cc(-c2ccc(F)c(Cl)c2)c2c(=O)n(CC(=O)N3CC(F)(F)C3)cnc21` [Example 163, 5-(3-chloro-4-fluorophenyl)-3-(2-(3,3-difluoroazetidin-1-yl)-2-oxoethyl)-7-ethyl-3H-pyrrolo[2,3-d]pyrimidin-4(7H)-one]: the “Response Recovered (%)” value stood at 48%.
For the compound `CCn1cc(-c2ccc(Cl)c(F)c2)c2c(=O)n(CC(=O)N3CC(F)(F)C3)cnc21` [Example 171, 5-(4-chloro-3-fluorophenyl)-3-(2-(3,3-difluoroazetidin-1-yl)-2-oxoethyl)-7-ethyl-3H-pyrrolo[2,3-d]pyrimidin-4(7H)-one], the “Response Recovered (%)” value is 15%.
As for `O=C(Cn1ccn2ncc(-c3ccc(Cl)c(Cl)c3)c2c1=O)N1CCC(F)C1` (stereo not drawn) [Example 327, 3-(3,4-dichlorophenyl)-5-(2-(3-fluoropyrrolidin-1-yl)-2-oxoethyl)pyrazolo[1,5-a]pyrazin-4(5H)-one], the “Response Recovered (%)” value amounted to 54%.
Turning to `CCC1(F)CN(C(=O)Cn2ccc3scc(-c4ccc(F)c(Cl)c4)c3c2=O)C1` [Example 52, 3-(3-chloro-4-fluorophenyl)-5-(2-(3-ethyl-3-fluoroazetidin-1-yl)-2-oxoethyl)thieno[3,2-c]pyridin-4(5H)-one], the “Response Recovered (%)” value was found to be 130%.
For the compound `CC1(F)CN(C(=O)Cn2ccc3c(c(-c4ccc(F)c(C(F)(F)F)c4)cn3C3CC3)c2=O)C1` [Example 287, 1-cyclopropyl-3-(4-fluoro-3-(trifluoromethyl)phenyl)-5-(2-(3-fluoro-3-methylazetidin-1-yl)-2-oxoethyl)-1H-pyrrolo[3,2-c]pyridin-4(5H)-one], the “Response Recovered (%)” value amounted to 140%.
Take `O=C(Cn1ccc2c(c(-c3ccc(F)c(C(F)(F)F)c3)cn2CCO)c1=O)N1CCC(F)C1` (stereo not drawn) [Example 256, 3-(4-fluoro-3-(trifluoromethyl)phenyl)-5-(2-(3-fluoropyrrolidin-1-yl)-2-oxoethyl)-1-(2-hydroxyethyl)-1H-pyrrolo[3,2-c]pyridin-4(5H)-one]: the “Response Recovered (%)” value came to 54%.
For `O=C(Cn1ccc2[nH]cc(-c3ccc(F)c(C(F)(F)F)c3)c2c1=O)N1CCC(F)C1` (stereo not drawn) [Example 215, 3-(4-fluoro-3-(trifluoromethyl)phenyl)-5-(2-(3-fluoropyrrolidin-1-yl)-2-oxoethyl)-1H-pyrrolo[3,2-c]pyridin-4(5H)-one], the “Response Recovered (%)” value is 89%.
Regarding `COCc1cn(CC(=O)N2CCC(F)C2)c(=O)c2c(-c3ccc(F)c(Cl)c3)csc12` (stereo not drawn) [Example 128, 3-(3-chloro-4-fluorophenyl)-5-(2-(3-fluoropyrrolidin-1-yl)-2-oxoethyl)-7-(methoxymethyl) thieno[3,2-c]pyridin-4(5H)-one], the “Response Recovered (%)” value is reported as 23%.
For the compound `O=C(Cn1cnc2cccc(-c3ccc(Cl)cc3)c2c1=O)N1CCCC1` [Example 295, 5-(4-chlorophenyl)-3-(2-oxo-2-(pyrrolidin-1-yl)ethyl)quinazolin-4(3H)-one], the “Response Recovered (%)” value worked out at 1%.
The same measure for `O=C(Cn1cnc2csc(-c3ccc(Cl)c(F)c3)c2c1=O)N1CCC(C(F)(F)F)C1` (stereo not drawn) [Example 365, 5-(4-chloro-3-fluorophenyl)-3-(2-oxo-2-(3-(trifluoromethyl)pyrrolidin-1-yl)ethyl)thieno[3,4-d]pyrimidin-4(3H)-one]: 4%.
